Experimental data as given in patent publication US12503438B2, “Compounds for the treatment of kinase-dependent disorders” (Exelixis, Inc., priority 2019, dated 2025).

Molecular target: T1, AXL (Homo sapiens, UniProt P30530)
T1 construct: endogenous in cells; host or cells: A-172 glioblastoma cells (ATCC #CRL-1620)
T1 sequence (P30530 26-894): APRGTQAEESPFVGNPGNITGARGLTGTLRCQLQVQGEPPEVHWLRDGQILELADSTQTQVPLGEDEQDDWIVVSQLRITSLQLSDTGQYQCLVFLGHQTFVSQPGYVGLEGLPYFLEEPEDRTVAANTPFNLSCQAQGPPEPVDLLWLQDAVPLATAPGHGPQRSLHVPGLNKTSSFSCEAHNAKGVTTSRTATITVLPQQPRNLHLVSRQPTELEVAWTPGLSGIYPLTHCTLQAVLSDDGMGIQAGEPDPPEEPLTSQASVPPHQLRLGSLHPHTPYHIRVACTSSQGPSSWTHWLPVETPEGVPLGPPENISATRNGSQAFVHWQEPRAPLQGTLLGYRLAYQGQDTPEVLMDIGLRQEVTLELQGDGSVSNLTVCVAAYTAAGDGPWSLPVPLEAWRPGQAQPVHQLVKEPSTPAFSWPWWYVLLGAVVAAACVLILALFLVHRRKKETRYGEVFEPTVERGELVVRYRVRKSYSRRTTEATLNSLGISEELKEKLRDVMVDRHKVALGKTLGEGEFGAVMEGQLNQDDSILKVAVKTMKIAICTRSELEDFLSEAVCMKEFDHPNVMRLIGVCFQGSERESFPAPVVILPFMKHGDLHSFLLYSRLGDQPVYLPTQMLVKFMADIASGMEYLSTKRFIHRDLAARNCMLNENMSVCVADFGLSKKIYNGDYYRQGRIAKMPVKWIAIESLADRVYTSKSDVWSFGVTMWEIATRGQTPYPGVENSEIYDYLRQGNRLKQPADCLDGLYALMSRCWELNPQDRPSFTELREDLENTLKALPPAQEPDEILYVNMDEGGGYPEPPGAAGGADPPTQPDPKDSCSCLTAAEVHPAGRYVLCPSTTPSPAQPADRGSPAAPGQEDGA
Test: AXL autophosphorylation ELISA in A-172 cells
Assay type: cell-based
Conditions: cellular activity, Gas6-stimulated, phospho-AXL ELISA
Protocol: A-172 glioblastoma cells (ATCC #CRL-1620) were seeded at 2.5×10^5 cells/well onto 24-well plates (Greiner #662165), in DMEM (Thermo Fisher #11995-040) containing 10% FBS (Thermo Fisher #26140-079), 1% MEM NEAA (Thermo Fisher #11140-050), 1% GlutaMax (Thermo Fisher #35050-061) and 1% Penicillin Streptomycin (Thermo Fisher #15140-122). A-172 cells were incubated at 37° C., 5% CO2 for 24 h and then starved for 24 h in serum-free medium. Test compounds were serially diluted to produce an 8-point dose curve in fresh serum-free medium to a final concentration of 0.3% DMSO (vehicle) and added to the cells and incubated for 1 h. Cells were then stimulated with 1 μg/mL recombinant human Gas6 (R&D Systems #885-GSB-500) for 15 min, washed with cold PBS and immediately lysed with 150 μL of cold 1× lysis buffer [20 mM Tris, 137 mM sodium chloride, 2 mM EDTA, 10% glycerol, 1% NP-40 alternative, 1 mM activated sodium orthovanadate, 1 mM PefaBloc SC (Sigma-Aldrich #11429868001), protease/phosphatase inhibitor tablet (Thermo Fisher #A32959)]. Lysates were collected and 100 μL/well added into the human phospho-AXL DuoSet IC ELISA (R&D Systems #DYC2228-2). Assay was performed according to manufacturer's instructions and sample phospho-AXL concentrations were extrapolated using human phospho-AXL control (R&D Systems #841645) as a standard. Positive control wells (100% activity) contained Gas6-stimulated, DMSO-treated cell lysates. Negative control wells (0% activity) contained Gas6-stimulated, reference inhibitor-treated cell lysates. IC50 values were calculated by nonlinear regression analysis using a 4-parameter logistic curve fit in ActivityBase XE (IDBS).

| SMILES | IC50 [nM] |
| --- | --- |
| Cn1ccc(-c2ccc3c(Oc4ccc(NC(=O)C5(C(=O)Nc6ccc(F)cc6)CC5)cc4)ccnc3c2)cc1=O [Compound 117, 1-N′-(4-Fluorophenyl)-1-N-[4-[7-(1-methyl-2-oxopyridin-4-yl)quinolin-4-yl]oxyphenyl]cyclopropane-1,1-dicarboxamide] | ≤ 10 |
| O=C(Nc1ccc(F)cc1)C1(C(=O)Nc2ccc(Oc3ccnc4cc(-c5cnn6c5CCC6)ccc34)cc2)CC1 [Compound 29, 1-N-[4-[7-(5,6-Dihydro-4H-pyrrolo[1,2-b]pyrazol-3-yl)quinolin-4-yl]oxyphenyl]-1-N′-(4-fluorophenyl)cyclopropane-1,1-dicarboxamide] | 10 to 100 |
| O=C(Nc1ccc(F)cc1)C1(C(=O)Nc2cc(F)c(Oc3ccnc4cc(-c5cnn(C(F)F)c5)ccc34)cc2F)CC1 [Compound 118, 1-N′-[4-[7-[1-(Difluoromethyl)pyrazol-4-yl]quinolin-4-yl]oxy-2,5-difluorophenyl]-1-N-(4-fluorophenyl)cyclopropane-1,1-dicarboxamide] | ≤ 10 |
| O=C(Nc1ccc(F)cc1)C1(C(=O)Nc2ccc(Oc3ccnc4cc(-c5ccc(F)nc5)ccc34)cc2)CC1 [Compound 41, 1-N′-(4-Fluorophenyl)-1-N-[4-[7-(6-fluoropyridin-3-yl)quinolin-4-yl]oxyphenyl]cyclopropane-1,1-dicarboxamide] | 10 to 100 |
| O=C(Nc1ccc(F)cc1)C1(C(=O)Nc2ccc(Oc3ccnc4cc(-c5ccc[n+]([O-])c5)ccc34)cc2)CC1 [Compound 109, 1-N′-(4-Fluorophenyl)-1-N-[4-[7-(1-oxidopyridin-1-ium-3-yl)quinolin-4-yl]oxyphenyl]cyclopropane-1,1-dicarboxamide] | ≤ 10 |
| O=C(Nc1ccc(F)cc1)C1(C(=O)Nc2ccc(Oc3ccnc4cc(-c5ccncn5)ccc34)cc2)CC1 [Compound 114, 1-N′-(4-Fluorophenyl)-1-N-[4-(7-pyrimidin-4-ylquinolin-4-yl)oxyphenyl]cyclopropane-1,1-dicarboxamide] | 10 to 100 |
| O=C(Nc1ccc(F)cc1)C1(C(=O)Nc2ccc(Oc3ccnc4cc(-c5cc6n(n5)CCC6)ccc34)cc2)CC1 [Compound 124, 1-N-[4-[7-(5,6-Dihydro-4H-pyrrolo[1,2-b]pyrazol-2-yl)quinolin-4-yl]oxyphenyl]-1-N′-(4-fluorophenyl)cyclopropane-1,1-dicarboxamide] | 10 to 100 |
| O=C(Nc1ccc(F)cc1)C1(C(=O)Nc2ccc(Oc3ccnc4cc(-c5ccc(O)nc5)ccc34)cc2)CC1 [Compound 51, 1-N′-(4-Fluorophenyl)-1-N-[4-[7-(6-hydroxypyridin-3-yl)quinolin-4-yl]oxyphenyl]cyclopropane-1,1-dicarboxamide] | ≤ 10 |
| Cc1cncc(-c2ccc3c(Oc4ccc(NC(=O)C5(C(=O)Nc6ccc(F)cc6)CC5)cc4)ccnc3c2)c1 [Compound 46, 1-N′-(4-Fluorophenyl)-1-N-[4-[7-(5-methylpyridin-3-yl)quinolin-4-yl]oxyphenyl]cyclopropane-1,1-dicarboxamide] | > 300 |
| Cc1cc2c(Oc3c(F)cc(NC(=O)C4(C(=O)Nc5ccc(F)cc5)CC4)c(F)c3F)ccnc2cc1-c1cnn(C)c1 [Compound 110, 1-N-(4-Fluorophenyl)-1-N′-[2,3,5-trifluoro-4-[6-methyl-7-(1-methylpyrazol-4-yl)quinolin-4-yl]oxyphenyl]cyclopropane-1,1-dicarboxamide] | 10 to 100 |
